We go through 20 molecules from US6297274A, “Nonpeptide endothelin antagonists with increased water solubility” (priority 1998, dated 2001).

For one series, the target named is T1, human ETA R (Homo sapiens, UniProt P25101).
T1 sequence (P25101 21-427): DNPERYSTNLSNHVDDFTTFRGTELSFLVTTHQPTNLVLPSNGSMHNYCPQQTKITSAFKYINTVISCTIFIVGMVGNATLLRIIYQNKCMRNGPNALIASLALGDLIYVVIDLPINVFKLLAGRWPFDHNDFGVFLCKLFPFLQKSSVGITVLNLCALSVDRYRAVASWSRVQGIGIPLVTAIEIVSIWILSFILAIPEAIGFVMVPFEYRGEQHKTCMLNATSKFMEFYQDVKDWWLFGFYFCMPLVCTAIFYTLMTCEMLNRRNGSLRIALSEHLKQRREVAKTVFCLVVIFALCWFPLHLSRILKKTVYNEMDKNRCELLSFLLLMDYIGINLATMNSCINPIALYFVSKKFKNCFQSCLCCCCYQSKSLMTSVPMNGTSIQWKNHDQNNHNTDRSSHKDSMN
The series is described as follows: biochemical. In kind it is binding. To be noted: read-out: HERBA-A IC50. The method, then: (§1) The following cultured cells were used in binding experiments: CHO-K1 cells expressing recombinant human ETB R (HERBA B), or Ltk-cells expressing human ETA R (HERBA A). […] Membranes were prepared from cultured cells by lysing cells in cold lysis buffer (5 mM HEPES, 2 mM EDTA, pH 7.4) and homogenizing with a Dounce "A" homogenizer. […] Radioligand and competing ligands were prepared in binding buffer containing 20 mM Tris, 2 mM EDTA, and 0.1% BSA.
(§2) The assay was terminated by filtration over Whatman GF/B filters that were presoaked with 50 mM Tris, pH 7.4, containing 0.2% BSA and 100 μM bacitracin. […] binding was defined as total binding minus nonspecific binding.

In a further series the target is T2, recombinant human ETB R (Homo sapiens, UniProt P24530).
T2 sequence (P24530 27-442): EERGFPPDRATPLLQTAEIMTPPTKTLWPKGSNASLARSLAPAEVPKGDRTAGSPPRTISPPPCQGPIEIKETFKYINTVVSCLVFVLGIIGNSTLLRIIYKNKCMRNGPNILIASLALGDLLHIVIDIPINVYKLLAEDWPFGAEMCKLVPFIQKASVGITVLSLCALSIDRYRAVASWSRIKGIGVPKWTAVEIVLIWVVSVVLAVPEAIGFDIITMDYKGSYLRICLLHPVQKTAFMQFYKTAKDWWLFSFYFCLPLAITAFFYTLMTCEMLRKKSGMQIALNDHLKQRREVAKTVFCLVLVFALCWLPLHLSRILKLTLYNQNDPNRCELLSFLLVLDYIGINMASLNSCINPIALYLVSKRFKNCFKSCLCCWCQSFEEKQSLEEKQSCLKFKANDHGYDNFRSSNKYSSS
As to the kind of experiment: biochemical. In kind it is binding. To be noted: read-out: HERBA-B IC50. As to the method:
as §1, §2

The nature of a further series: physchem. The settings on record: water.
The target in series [1] is T3, ET-1 stimulated vasoconstriction, rabbit femoral artery (Oryctolagus cuniculus, UniProt A5A8K3).
T3 sequence (A5A8K3 21-427): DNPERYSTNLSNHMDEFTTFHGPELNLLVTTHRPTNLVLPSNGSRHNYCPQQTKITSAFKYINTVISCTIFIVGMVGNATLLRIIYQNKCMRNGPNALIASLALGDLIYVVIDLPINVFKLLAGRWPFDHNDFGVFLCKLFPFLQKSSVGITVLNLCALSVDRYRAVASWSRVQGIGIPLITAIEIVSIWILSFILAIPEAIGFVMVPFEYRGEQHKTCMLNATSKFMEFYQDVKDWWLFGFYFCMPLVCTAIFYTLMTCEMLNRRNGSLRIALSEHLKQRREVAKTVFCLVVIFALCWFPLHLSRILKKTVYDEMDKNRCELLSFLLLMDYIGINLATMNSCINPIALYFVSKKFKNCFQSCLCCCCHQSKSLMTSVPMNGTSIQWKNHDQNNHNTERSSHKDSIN
The settings on record: read-out: VERA-A pA2 (converted). The source says:
In vitro and in vivo studies with a series of hexapeptide endothelin antagonists. J. Cardiovasc. […] The data are presented as pA2 values.

Series [2] deals with cerebral hemisphere of cats following middle cerebral artery occlusion. To be noted: IV; cited from earlier work.
The subject of series [3] is rat hypoxia model of hypertension. To be noted: cited from earlier work.
[4] abbreviates: human cloned receptor ETA, [125I]-ET-1 (40 pM), 2 hours, 37 °C.
[5] abbreviates: human cloned receptor ETB, [125I]-ET-1 (40 pM), 2 hours, 37 °C.

Structures can show the parent of a compound that is named as a salt. Where two headings read alike, the source gives them in different places.

As to `COc1ccc(C2(O)OC(=O)C(c3ccc4c(c3)OCO4)=C2Cc2cc(OC)c(OC)c(OCC(=O)NCCN3CCOCC3)c2)cc1` (stereo not drawn) [Example 3, 2-{5-[4-Benzo[1,3]dioxol-5-yl-2-hydroxy-2-(4-methoxy-phenyl)-5-oxo-2,5-dihydro-furan-3-ylmethyl]-2,3-dimethoxy-phenoxy}-N-(2-morpholin-4-yl-ethyl)-acetamide], the IC50 (usually the point on the concentration scale where inhibition reaches its midpoint) was 2 nM at human ETA R (setting [4]) and > 2500 nM at recombinant human ETB R (setting [5]).
Regarding `COc1ccc(C2(O)OC(=O)C(c3cc(OC)c4c(c3)OCO4)=C2Cc2cccc(CN(C)C)c2)cc1` (stereo not drawn) [Example 35, 4-(3-Dimethylaminomethyl-benzyl)-5-hydroxy-3-(7-methoxy-benzo[1,3]dioxol-5-yl)-5-(4-methoxy-phenyl)-5H-furan-2-one 2-hydroxyethanesulfonate], the results for the IC50 on human ETA R (setting [4]) and at recombinant human ETB R (setting [5]) were 1 nM and 210 nM, respectively.
Regarding `COc1ccc(C2(O)OC(=O)C(c3ccc4c(c3)OCO4)=C2Cc2cc(OC)c(OC)c(OCCN3CCOCC3)c2)cc1` (stereo not drawn) [Example 37, 3-Benzo[1,3]dioxol-5-yl-4-[3,4-dimethoxy-5-(2-morpholin-4-yl-ethoxy)-benzyl]-5-hydroxy-(4-methoxy-phenyl)-5-furan-2-one 2-hydroxyethanesulfonate], the solubility (usually the dissolved amount per volume that the medium holds) in the series “physchem” is > 25 mg/mL.
As for `COc1ccc(C2(O)OC(=O)C(c3cc(OC)cc(OC)c3)=C2Cc2cc(OC)c(OC)c(OCCN(C)C)c2)cc1` (stereo not drawn) [Example 16], the IC50 at human ETA R (setting [4]) is 2 nM; at recombinant human ETB R (setting [5]), > 2500 nM.
The corresponding values for `COc1cc(CC2=C(c3ccc4c(c3)OCO4)C(=O)OC2(O)c2ccc(OCCN3CCOCC3)cc2)cc(OC)c1OC` (stereo not drawn) [Example 27, 3-Benzo[1,3]dioxol-5-yl-5-hydroxy-5-[4-(2-morpholin-4-ethoxy)-phenyl]-4-(3,4,5-trimethoxy-benzyl)-5H-furan-2-one] are 14 nM and 3350 nM.
As for `COc1ccc(C(=O)C(Cc2cccc(CN(C)C)c2)=C(C(=O)O)c2cc(OC)c3c(c2)OCO3)cc1` [sodium salt], the IC50 on human ETA R amounted to 2 nM; on recombinant human ETB R, 300 nM.
Regarding `COc1ccc(C2(O)OC(=O)C(c3ccc4c(c3)OCO4)=C2Cc2cc(OC)c(OC)c(OCCCS(=O)(=O)O)c2)cc1` (stereo not drawn) [Example 26], the solubility in “physchem” was > 80 mg/mL.
Turning to `COc1cc(CC2=C(c3ccc4c(c3)OCO4)C(=O)OC2(O)c2ccc(OCCCN(C)C)cc2)cc(OC)c1OC` (stereo not drawn) [Example 30, 3-Benzo[1,3]dioxol-5-yl-5-[4-(3-dimethylamino-propoxy)-phenyl]-5-hydroxy-4-(3,4,5-trimethoxy-benzyl)-5H-furan-2-one 2-hydroxyethanesulfonate], the IC50 at human ETA R (setting [4]) was 180 nM; on recombinant human ETB R (setting [5]), > 2500 nM.
As to `COc1ccc(C2(O)OC(=O)C(c3ccc4c(c3)OCO4)=C2Cc2cccc(CN(C)C)c2)cc1` (stereo not drawn) [Example 33, 3-Benzo[1,3]dioxol-5-yl-4-(3-dimethylaminomethyl-benzyl)-5-hydroxy-5-(4-methoxy-phenyl)-5H-furan-2-one 2-hydroxyethanesulfonate], the figures for the IC50 at human ETA R (setting [4]) and at recombinant human ETB R (setting [5]) were 1.2 nM and 470 nM, respectively. Moreover, in series [1] (ET-1 stimulated vasoconstriction, rabbit femoral artery), the Kb is 200 nM.
For `COc1ccc(C2(O)OC(=O)C(c3cc(OC)cc(OC)c3)=C2Cc2cc(OC)c(OC)c(OCCCN3CCN(C)CC3)c2)cc1` (stereo not drawn) [Example 17, 4-{3,4-Dimethoxy-5-[3-(4-methyl-piperazzin-1-yl)-propoxy]-benzyl}-3-(3,5-dimethoxy-phenyl)-5-hydroxy-5-(4-methoxy-phenyl)-5-hydroxy-5-(4-methoxy-phenyl)-5H-furan-2-one], the results for the IC50 at human ETA R (setting [4]) and on recombinant human ETB R (setting [5]) were 12.5 nM and > 2500 nM, respectively.
Turning to `COc1ccc(C2(O)OC(=O)C(c3cc(OC)c4c(c3)OCO4)=C2Cc2cccc(CN(C)C)c2)cc1` (stereo not drawn) [Example 34, 4-(3-Dimethylaminomethyl-benzyl)-5-hydroxy-3-(7-methoxy-benzo[1,3]dioxol-5-yl)-5-(4-methoxy-phenyl)-5H-furan-2-one], the IC50 at human ETA R (setting [4]) stood at 0.6 nM; at recombinant human ETB R (setting [5]), 110 nM.
In the case of `COc1ccc(C2(O)OC(=O)C(c3ccc4c(c3)OCO4)=C2Cc2cc(OC)c(OC)c(OCC(=O)NCCN3CCOCC3)c2)cc1` (stereo not drawn) [Example 4], on human ETA R (setting [4]), the IC50 amounted to 1 nM. Moreover, in series [1], the Kb was 100 nM.
On to `COc1ccc(C2(O)OC(=O)C(c3ccc4c(c3)OCO4)=C2Cc2cccc(CN(C)C)c2)cc1` (stereo not drawn) [Example 32], for which the values for the IC50 on human ETA R (setting [4]) and on recombinant human ETB R (setting [5]) were 4 nM and 900 nM, respectively.
With `COc1ccc(C2(O)OC(=O)C(c3ccc4c(c3)OCO4)=C2Cc2cc(OC)c(OC)c(OC)c2)cc1` (stereo not drawn) [PD 156707], the “volume of ischemic damage in the cerebral hemisphere” value in series [2] is on record as “significantly reduced”. The “pulmonary vascular resistance and pulmonary arterial pressure” value in series [3] is “provide protection in a rat hypoxia model of hypertension by lowering the increase in pulmonary vascular resistance and pulmonary arterial pressure”.
For `COc1ccc(C2(O)OC(=O)C(c3ccc4c(c3)OCO4)=C2Cc2cc(OC)c(OC)c(OC)c2)c(OCCCN(C)C)c1` (stereo not drawn) [Example 38, 3Benzo[1,3]dioxol-5-yl-5-[2-(3-dimethylamino-propoxy)-4-methoxy-phenyl]-5-hydroxy-4-(3,4,5-trimethoxy-benzyl)-5H-furan-2-one], the IC50 amounted to 1 nM on human ETA R (setting [4]) and 800 nM on recombinant human ETB R (setting [5]). The Kb in series [1] was 100 nM.
Turning to `CNc1cccc(CC2=C(c3ccc4c(c3)OCO4)C(=O)OC2(O)c2ccc(OC)cc2)c1` (stereo not drawn) [Example 31, 3-Benzo[1,3]dioxol-5-yl-5-hydroxy-5-(4-methoxy-phenyl)-4-(3-methylamino-benzyl)-5H-furan-2-one], the IC50 was 2 nM at human ETA R (setting [4]) and 2700 nM on recombinant human ETB R (setting [5]).
As to `COc1ccc(C2(O)OC(=O)C(c3ccc4c(c3)OCO4)=C2Cc2cc(OC)c(OC)c(OCCN(C)C)c2)cc1` (stereo not drawn) [Example 11, 3-Benzo[1,3]dioxyl-5-yl-4-[3-(2-dimethylamino-ethoxy)-4,5-dimethoxy-benzyl]-5-hydroxy-5-(4-methoxy-phenyl)-5H-furan-2-one 2-hydroxyethanesulfonate], in the series “physchem”, the solubility was > 25 mg/mL.
For `COc1cc(CC2=C(c3ccc4c(c3)OCO4)C(=O)OC2(O)c2ccc(OCCCN(C)C)cc2)cc(OC)c1OC` (stereo not drawn) [Example 29, 3-Benzo[1,3]dioxol-5-yl-5-[4-(3-dimethylamino-propoxy)-phenyl]-5-hydroxy-4-(3,4,5-trimethoxy-benzyl)-5H-furan-2-one], the IC50 on human ETA R (setting [4]) was 40 nM; at recombinant human ETB R (setting [5]) it was 17000 nM.
On the same counts, the results for `COc1ccc(C2(O)OC(=O)C(c3ccc4c(c3)OCO4)=C2Cc2cc(OC)c(OCCN3CCOCC3)c(OCCN3CCOCC3)c2)cc1` (stereo not drawn) [Example 9, 3-Benzo[1,3]dioxol-5-yl-5-hydroxy-4-[3-methoxy-4,5-bis-(2-morpholin-4-yl-ethoxy)-benzyl]-5(4-methoxy-phenyl)-5H-furan-2-one 2-hydroxyethanesulfonate] are 180 nM and > 25000 nM.
As to `COc1cc(CC2=C(c3ccc4c(c3)OCO4)C(=O)OC2(O)c2ccc(OCCN3CCOCC3)cc2)cc(OC)c1OC` (stereo not drawn) [Example 28, 3-Benzo[1,3]dioxol-5-yl-5-hydroxy-5-[4-(2-morpholin-4-yl-ethoxy)-phenyl]-4-(3,4,5-trimethoxy-benzyl)-5H-furan-2-one 2-hydroxyethanesulfonate], the IC50 on human ETA R is 12 nM; on recombinant human ETB R (setting [5]) it was 4100 nM.
